Results from US10611748B2, “Xanthone derivatives for the treatment of hepatitis B virus disease” (Hoffmann-La Roche Inc., priority 2017, dated 2020).

Key:
[1] = test system: extracellular HBeAg level (surrogate marker for cccDNA) in HepDES19 cells; assay: HepDES19 primary screen assay; assay type: cell-based, HBV; conditions: Hepatitis B virus, 120 h, 5 days compound incubation, HBeAg ELISA
Source text: The assay was employed to primarily screen for novel cccDNA inhibitors. HepDES19 is an engineered cell line which contains a 1.1 unit length HBV genome, and pgRNA transcription from the transgene is controlled by Tetracycline (Tet). In the absence of Tet, pgRNA transcription will be induced, but HBV e antigen (HBeAg) could not be produced from this pgRNA due to the fact that the very short leader sequence before the HBeAg start codondisrupted the start codon. Only after cccDNA is formed, the missing leader sequence and start codon mutation would be restored from the 3′-terminal redundancy of pgRNA, and then HBeAg could be synthesized. Therefore, HBeAg could be used as a surrogate marker for cccDNA (Zhou, T. et al., Antiviral Res(2006), 72(2), 116-124; Guo, H. et al., J. Virol (2007), 81(22), 12472-12484).
HepDES19 cells were seeded at 2×10^6 cells per T150 flask and cultured with the culture medium (Dulbecco's Modified Eagle Medium: Nutrient Mixture F-12 (DMEM:F12, Gibco Cat. 11320-82), 10% Fetal Bovine Serum (FBS, Clontech Cat. 631101), 0.1 mM Non-Essential Amino Acids Solution (NEAA, Gibco Cat. 11140-050), 50 μg/mL Penicillin-Streptomycin (PS, Invitrogen Cat. 15140-163), 500 μg/mL Geneticin (G418, Invitrogen Cat. 10131-027) containing 3 μg/mL Tet (Sigma, Cat. 87128) for 5 days. Cells were then seeded at 4×10^6 cells per T150 in the same culture medium as described above in the absence of Tet for 8 days. Cells were then harvested and frozen at density of 2×10^6 cells per mL. For compound testing, the frozen cells were thawed and seeded into 96-well plates at a density of 6×10^4 cells per well. At 24 hrs after seeding, half log serial dilutions of compounds made with Dimethyl sulfoxide (DMSO, Sigma, Cat. D2650) were further diluted with the same culture medium as described above before they were added to the cells to reach desired final compound concentrations and 1% DMSO concentration. Plates were then incubated at 37° C. for another 5 days before measurement of HBeAg level and cell viability. Extracellular HBeAg level were measured with enzyme-linked immunosorbent assay (ELISA) kit (Shanghai Kehua Diagnostic Medical Products Co., Ltd). Cell viability was assessed using Cell Counting Kit-8 (Donjindo, Cat. CK04-20). IC50 values were derived from the dose-response curve using 4 parameter logistic curve fit method.
The compounds of the present invention were tested for their capacity to inhibit extracellular HBeAg level as described herein.

[2] = test system: extracellular HBsAg level in HBV-infected PHH; assay: Cryopreserved primary human hepatocytes (PHH) assay, HBsAg; assay type: cell-based; conditions: Hepatitis B virus, Hepatocyte, 216 h, read-out: HBsAg IC50
Method: Cryopreserved PHH (BioreclamationIVT, Lot YJM) was thawed at 37° C. and gently transferred into pre-warmed InVitroGRO HT medium (BioreclamationIVT, Cat. S03317). The mixture was centrifuged at 70 relative centrifugal force (RCF) for 3 minutes at RT, and the supernatant was discarded. Pre-warmed InVitroGRO CP medium (BioreclamationIVT, Cat # S03316) was added to the cell pellet to gently re-suspend cells. The cells were seeded at the density of 5.8×10^4 cells per well to collagen I coated 96-well plate (Gibco, Cat. A1142803) with the InVitroGRO CP medium. All plates were incubated at 37° C. with 5% CO2 and 85% humidity.
At 20 hours after plating, the medium was changed to PHH culture medium (Dulbecco's Modified Eagle Medium (DMEM)/F12 (1:1) (Gibco, Cat. 11320-033), 10% fetal bovine serum (Gibco Cat. 10099141), 100 U/mL penicillin, 100 μg/mL streptomycin (Gibco, Cat. 151401-122), 5 ng/mL human epidermal growth factor (Invitrogen Cat. PHG0311L), 20 ng/mL dexamethasone (Sigma, Cat. D4902) and 250 ng/mL human recombinant insulin (Gibco, Cat. 12585-014)). And the cells were incubated at 37° C. with 5% CO2 and 85% humidity for 4 hours. The medium was then changed to pre-warmed PHH culture medium containing 4% polyethylene glycol (PEG) MW8000 (Sigma, Cat. P1458-50ML) and 1% DMSO (Sigma, Cat. D2650). 5.8×10^6 genomic equivalents of HBV were added into the medium.
At 24 hours post-infection, the cells were gently washed with PBS and refreshed with PHH culture medium supplemented with 1% DMSO, and 0.25 mg/mL Matrix gel (Corning, Cat. 356237) at 200 μL per well. All plates were immediately placed in at 37° C. CO2 incubator.
24 hours later, serial dilutions of compounds made with DMSO were further diluted with the same culture medium (PHH culture medium supplemented with 1% DMSO and 0.25 mg/mL Matrix gel as described above) before they were added to the cells to reach desired final compound concentrations and 1% DMSO concentration. The medium containing the compounds were refreshed every three days.
At 9 days post-compound treatment, extracellular HBsAg level were measured with Chemiluminescence Immuno Assay (CLIA) kit (Autobio, HBsAg Quantitative CLIA). Extracellular HBV DNA was extracted by MagNA Pure 96 system (Roche) and then determined by quantitative PCR with the following primers and probe: HBV-Forward Primer (SEQ ID NO:2): […] (5′ to 3′); HBV-Reverse Primer (SEQ ID NO:3): […](5′ to 3′); HBV-Probe: 5′+tetramethylrhodamine+SEQ ID NO:4+black hole quencher 2-3′, wherein SEQ ID NO:4 is […].
HBsAg IC50 and HBV DNA IC50 values were derived from the dose-response curve using 4 parameter logistic curve fit method.

[3] = test system: cccDNA level in HepDES19 cells; assay: cccDNA Southern Blot assay; assay type: cell-based, HBV; conditions: 5 days' compound treatment, Hirt DNA, serial dilutions
Method: HepDES19 cells were seeded at 4×10^6 cells per T150 in the culture medium (Dulbecco's Modified Eagle Medium: Nutrient Mixture F-12 (DMEM:F12, Gibco Cat. 11320-82), 10% Fetal Bovine Serum (FBS, Clontech Cat. 631101), 0.1 mM Non-Essential Amino Acids Solution (NEAA, Gibco Cat. 11140-050), […] Penicillin-Streptomycin (PS, Invitrogen Cat. 15140-163), 500 μg/mL Geneticin (G418, Invitrogen Cat. 10131-027) in the absence of Tet for 8 days. These cells were seeded at the density of 1×10^6 cells per well in 6-well plate. At 24 hrs after seeding, serial dilutions of compounds made with DMSO (Sigma, Cat. D2650) were further diluted with the same culture medium as described above before they were added to the cells to reach desired final compound concentrations and 1% DMSO concentration. After 5 days' compound treatment, the cells growing in one well from 6-well plate were re-suspended with 500 μL re-suspension buffer (50 mM tris[hydroxymethyl]aminomethane pH 7.5), 10 mM ethylenediaminetetraacetic acid (EDTA), 50 μg/mL RNase A (Qiagen, Cat. 158922). 500 μL of 1.2% sodium dodecyl sulfate (SDS) was then added into the re-suspended cells to lyse the cells. After 15 minutes' incubation, 700 μL precipitation buffer (3M cesium chloride, 1M potassium acetate, 0.67M acetic acid) was added and the lysate was incubated at 4° C. for 2 h. The lysate was centrifuged at 15000 revolutions per minute (RPM) at 4° C. for 15 minutes. The supernatant was collected and loaded onto Qiagen miniprep columns (QIAprep spin Mini prep kit, Cat. No. 27016). After centrifugation for 1 minute at 15000 RPM, the column was washed once with 750 µL wash buffer PE from QIAprep spin Mini prep kit. 80 μL of double distilled water was loaded to the columns to elute Hirt DNA.
Hirt DNA of each sample was loaded into 1.2% lx tris-acetate electrophoresis (TAE) agarose gel and separated at 90 voltages for 3 hours. The gel was then treated in 50 mM NaAc—HAc, pH4.2 for 30 min at room temperature (RT), and then denatured by soaking in denaturation buffer (0.5 M sodium hydroxide, 1.5 M sodium chloride) at RT for 30-45 min. The gel was then treated with neutralization buffer (1M tris[hydroxymethyl]aminomethane pH7.4 and 1.5M NaCl) at RT for 30 to 45 min.
The gel was transferred onto a pre-wet Nylon membrane (GE life science, Hybond N+) by capillary transfer method overnight, followed by UV crosslinking. The membrane was transferred into a hybridization tube, then rinsed with double distilled water at 60° C. for 5 mins. 10 mL of hybridization buffer (Lab kits, China) was added, the resulting sample was rotated in hybridization oven at 60° C. for 1 hour. Digoxigenin (DIG)-labelled HBV probe (SEQ ID NO: 1) was denatured at 95° C. for 10 minutes, and then 7 μL of denatured probe was added to the hybridization tube, which was rotated in hybridization oven at 60° C. overnight.
On the second day, the membrane was washed according to the procedure of DIG wash and block buffer set kit (Roche, Cat. 11 585 762 001), and then incubated with 50 mL antibody solution (Antibody anti-Digoxigenin-AP Fab fragment (Roche Cat. 11093274910) diluted in fresh 1× blocking buffer at 1:10,000) for 1 hour. The membrane was washed with 50 mL washing buffer (1× Maleic buffer with 0.3% Tween-20) for 15 minutes twice, and equilibrated with 20 mL detection buffer (0.1M tris[hydroxymethyl]aminomethane pH9.5, 0.1M sodium chloride) for 5 minutes. CDP-Star substrate (Roche, Cat. 12041677001) was added to the membrane for 5 minutes, and then the membrane was scanned by Bio-Rad Visualize Image System (Biorad, ChemiDoc-MP, Serial No. 731BR00916).

Row | SMILES | IC50 [1] [µM] | IC50 [2] [µM] | cccDNA level in HepDES19 cells (Southern Blot) [3]
1 | O=C(O)C1CCN(c2ccc3c(=O)c4c(F)ccc(Cl)c4oc3c2)C1 (stereo not shown) [Example 66, 1-(5-chloro-8-fluoro-9-oxo-xanthen-3-yl)pyrrolidine-3-carboxylic Acid] | 1.91 | 8.48 | 
2 | O=C(O)C1CCN(c2ccc3c(=O)c4c(O)ccc(Cl)c4oc3c2)C1 (stereo not shown) [Example 53, 1-(5-chloro-8-hydroxy-9-oxo-xanthen-3-yl)pyrrolidine-3-carboxylic Acid] | 3.43 | 8.12 | 
3 | O=C(O)C1CCN(c2ccc3c(=O)c4c(C(F)(F)F)ccc(Cl)c4oc3c2)C1 (stereo not shown) [Example 67, 1-[5-chloro-9-oxo-8-(trifluoromethyl)xanthen-3-yl]pyrrolidine-3-carboxylic Acid] | 0.39 | 1.29 | 
4 | O=C(O)C1CCN(c2ccc3c(=O)c4cccc(Br)c4oc3c2)C1 (stereo not shown) [Example 7, 1-(5-bromo-9-oxo-xanthen-3-yl)pyrrolidine-3-carboxylic acid] | 3.56 |  | dose-dependently reduced cccDNA level
5 | N#Cc1ccc(Cl)c2oc3cc(N4CCC(C(=O)O)C4)ccc3c(=O)c12 (stereo not shown) [Example 44, 1-(5-chloro-8-cyano-9-oxo-xanthen-3-yl)pyrrolidine-3-carboxylic Acid] | 1.1 | 12.4 | 
